System: male Sprague Dawley rats
Experiment: Tetradic encounter test
Assay type: in vivo, rat
Details: acute
Experimental: Example 130b was dissolved in 0.5% Natrosol and administered acutely p.o. (gavage) 40 minutes before behavioural testing. Example 130b was administered in doses of 0.3, 1.0 and 3.0 mg/kg in a volume of 5 ml/kg, each.
Chlordiazepoxide was dissolved in 0.9% NaCl and administered acutely i.p. 30 minutes before behavioural testing with a dose of 3 mg/kg in a volume of 1 ml/kg (test group TG 2, see below). The solution was prepared freshly every day.
216 male Sprague Dawley rats. The animals were 6 weeks old at the start of the study. They were housed in groups of 4 animals (“acute animals”) or in single cages (“chronic animals”) at 12 h/12 h light/dark (start of the light phase at 2 a.m.), 20° C., 60% rH. Animals were provided by Elevage Janvier, France.
Animals were kept in group cages until compound administration. Each two animals derived from the same home cage and were treated the same way. During the time from compound administration to the beginning of the test, animals were kept in single cages for 40 minutes.
The tetradic encounter test was conducted according to the protocol of Wolffgramm (1990). Four rats were placed for 15 minutes in an open field arena of 1 m×1 m; all four animals of an encounter group were treated in the same way, they received either test compound, reference compound, or vehicle. Each two animals were from the same home cage. The open field was illuminated by dim red light (3-4 Lux). Rats were familiar with the open field and their encounter partners by means of three prior training sessions (no compound administration). Testing (compound administration) started at 2:20 p.m. (dark phase). All animals were marked individually by means of black symbols on their back. Behaviour was recorded on videotapes. Each animal was tested once.
Raw data were provided as videotapes and protocol sheets of application and test time. From the videotapes the trajectory of the animal's movement was tracked and coordinates and time stamps were continually noted in a data file. The resulting file was transferred to a computer program for further analysis.
The following parameters were calculated for the whole test phase (15 minutes): • Total distance travelled (m) • Use of available space (%) • Portion of time spent in the centre (%) • Portion of time spent in the corners (%) • Mean distance to the encounter mates (cm) • Distribution of spatial distance to the encounter mates • Dynamics of spatial distance to the encounter mates (cross-distance course) Social Behaviour
Raw data were provided as videotapes and protocol sheets of application and test time. From the videotapes the social behaviour of each rat was rated by an experienced ethologist using a list of predefined behavioural patterns. The observer was blind to the animal's treatment. The resulting file containing the time series of behavioural patterns was transferred to a computer program for further analysis.
The following parameters were calculated for the whole test phase (15 minutes): • Number of non-agonistic social acts (N) • Number of aggressive acts (N) • Number of defensive acts (N) • Time spent with non-agonistic social acts (%) • Time spent with aggressive acts (%) • Time spent with defensive acts (%) • Behavioural synchrony
To quantify inter-individual synchrony, coefficients of synchrony were calculated that base on rank correlation coefficients. For this purpose, the time series of behavioural patterns was subdivided into equidistant interval sections (here: 1 s intervals). To calculate synchrony coefficients, the user must define “pattern sets of interest”. Each set contained one or more behavioural patterns that were taken together for the analysis (e.g. “friendly contact” or “all kinds of social interaction”). […]

[1] = vs vehicle, Chlordiazepoxide 3 mg/kg i.p., Example 130b low and high dose (0.3 and 3.0 mg/kg p.o.)
[2] = vs vehicle, Example 130b high dose (3.0 mg/kg p.o.)

NCc1c(-c2ccc(Cl)cc2Cl)ncn1Cc1ccsc1 [Example 130b, (4-(2,4-dichlorophenyl)-1-((thiophen-3-yl)methyl)-1H-imidazol-5-yl)methanamine]
locomotor activity (tetradic encounter, Chlordiazepoxide 3 mg/kg i.p., Example 130b 0.3-3.0 mg/kg p.o.): altered locomotor activity | inter-individual synchrony of behaviour (vs vehicle, Chlordiazepoxide 3 mg/kg i.p., Example 130b 0.3, 1.0, 3.0 mg/kg p.o. (especially the high dose increased synchrony)): strong effects | distance to the encounter mates [1]: significantly higher distance | number of defensive acts [1]: statistically significant increase | time spent in a distance of 75-100 cm to encounter mates (vs vehicle, Chlordiazepoxide 3 mg/kg i.p., Example 130b low and medium dose (0.3 and 1.0 mg/kg p.o.)): higher amount | time spent in a distance of 25-50 cm to encounter mates (vs vehicle, Chlordiazepoxide 3 mg/kg i.p., Example 130b low dose (0.3 mg/kg p.o.)): significantly lower amount of time | time spent with friendly (non-agonistic) social behaviour (vs vehicle, Chlordiazepoxide 3 mg/kg i.p., Example 130b medium dose (1.0 mg/kg p.o.)): tended to increase | time spent in a distance of 50-75 cm to encounter mates [2]: higher amount | time spent in a distance of less than 25 cm to encounter mates [2]: significantly lower amount of time | time spent in the centre of the open field [2]: significantly increased | usage of available space [2]: significantly increased | distance travelled during the first five minutes of the test (vs vehicle, Example 130b low and high dose (0.3 and 3.0 mg/kg p.o.)): statistically significant increase | time spent in a distance of more than 100 cm to encounter mates (vs vehicle, Example 130b low dose (0.3 mg/kg p.o.)): higher amount

Reference: US7728146B2, “Enzyme inhibitors” (Probiodrug AG, priority 2006, dated 2010)
